Measurements: patent US5073557A, “Novel substituted pyrazine, formulations thereof and use in medicine” (Merck Sharp & Dohme Limited, priority 1989, dated 1991)

Columns and labels:
Type in all cases: cell-based
[1] = target: T1, M1 muscarinic receptor (ganglion) (Rattus norvegicus, UniProt P08482); assay: Agonist activity against muscarinic receptors in the ganglion (M1 agonist activity); conditions: for EC50: ganglion
T1 construct: agonist activity against muscarinic receptors in the ganglion, heart and ileum; from tissue
T1 sequence (P08482 1-460): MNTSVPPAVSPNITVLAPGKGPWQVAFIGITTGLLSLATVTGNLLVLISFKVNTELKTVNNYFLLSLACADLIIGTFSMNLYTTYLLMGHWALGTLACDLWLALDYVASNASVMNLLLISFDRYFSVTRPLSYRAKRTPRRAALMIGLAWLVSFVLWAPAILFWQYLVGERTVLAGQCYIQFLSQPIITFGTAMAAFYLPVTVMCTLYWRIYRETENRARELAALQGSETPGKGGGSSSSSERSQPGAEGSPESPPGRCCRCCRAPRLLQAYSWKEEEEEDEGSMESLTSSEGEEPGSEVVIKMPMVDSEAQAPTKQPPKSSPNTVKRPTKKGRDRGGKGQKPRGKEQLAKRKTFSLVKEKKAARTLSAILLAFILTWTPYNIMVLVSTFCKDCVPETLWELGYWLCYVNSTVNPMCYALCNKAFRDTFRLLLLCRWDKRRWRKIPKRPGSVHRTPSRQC
Source text: (§1) European Patent Application No. 89200147 (Publication No. 327155) discloses a class of pyrazines, pyridazines or pyrimidines, and salts and prodrugs thereof, substituted on one of the ring carbon atoms thereof with a non-aromatic azacyclic or azabicyclic ring system; and independently substituted on each of the other ring carbon atoms with a substituent of low lipophilicity or a hydrocarbon substituent, which compounds stimulate cholinergic transmission.
(§2) The following results are obtained in pharmacological assays to allow agonist activity against muscarinic receptors in the ganglion, heart and ileum.

[2] = target: T2, M2 muscarinic receptor (heart) (Cavia porcellus, UniProt H0VRN8); assay: Pharmacological assay on muscarinic receptors in the heart (M2 antagonist activity); conditions: read-out: Heart (pA2) (converted)
T2 construct: agonist activity against muscarinic receptors in the ganglion, heart and ileum; from tissue
T2 sequence (H0VRN8 1-466): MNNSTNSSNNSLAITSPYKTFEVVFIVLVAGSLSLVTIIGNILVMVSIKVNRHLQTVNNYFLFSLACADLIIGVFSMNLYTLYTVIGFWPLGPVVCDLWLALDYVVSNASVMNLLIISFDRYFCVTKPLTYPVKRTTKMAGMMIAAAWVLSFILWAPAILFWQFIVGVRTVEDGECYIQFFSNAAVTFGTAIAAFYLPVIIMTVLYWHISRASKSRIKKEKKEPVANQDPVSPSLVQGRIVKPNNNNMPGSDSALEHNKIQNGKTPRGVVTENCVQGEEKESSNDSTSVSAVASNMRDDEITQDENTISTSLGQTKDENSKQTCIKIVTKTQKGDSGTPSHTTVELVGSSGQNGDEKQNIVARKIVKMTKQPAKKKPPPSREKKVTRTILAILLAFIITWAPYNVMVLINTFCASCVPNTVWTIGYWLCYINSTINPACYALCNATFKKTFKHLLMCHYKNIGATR
Source text: as §1, §2

[3] = target: T3, M3 muscarinic receptor (ileum) (Cavia porcellus, UniProt H0W1Z3); assay: Agonist activity against muscarinic receptors in the ileum (M3 agonist activity)
T3 construct: agonist activity against muscarinic receptors in the ganglion, heart and ileum; from tissue; host or cells: ileum
T3 sequence (H0W1Z3 1-590): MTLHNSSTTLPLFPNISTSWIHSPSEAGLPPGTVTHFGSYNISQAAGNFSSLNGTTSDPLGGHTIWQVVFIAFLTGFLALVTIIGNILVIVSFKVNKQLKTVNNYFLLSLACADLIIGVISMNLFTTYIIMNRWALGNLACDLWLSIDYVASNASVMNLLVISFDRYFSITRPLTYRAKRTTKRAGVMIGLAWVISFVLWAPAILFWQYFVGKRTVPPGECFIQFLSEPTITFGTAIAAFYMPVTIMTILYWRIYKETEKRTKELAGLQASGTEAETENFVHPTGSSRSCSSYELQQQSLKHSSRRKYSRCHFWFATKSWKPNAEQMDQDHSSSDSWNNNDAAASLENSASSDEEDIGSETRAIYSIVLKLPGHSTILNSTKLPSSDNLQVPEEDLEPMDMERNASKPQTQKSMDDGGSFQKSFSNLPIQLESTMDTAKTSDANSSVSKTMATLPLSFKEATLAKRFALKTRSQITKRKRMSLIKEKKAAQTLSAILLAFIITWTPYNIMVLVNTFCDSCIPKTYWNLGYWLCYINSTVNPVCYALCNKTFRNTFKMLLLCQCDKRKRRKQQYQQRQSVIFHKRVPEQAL
Source text: as §1, §2

| SMILES | EC50 [1] [nM] | Kb [2] [nM] | EC50 [3] [nM] | potency at the M1 receptor relative to the corresponding (S)-enantiomer ([1]; M1 receptor, versus (S)-enantiomer) | potency at the M1 receptor relative to the corresponding racemate ([1]; M1 receptor, versus racemate) |
| --- | --- | --- | --- | --- | --- |
| Clc1cncc(C2CN3CCC2CC3)n1 (racemic) [racemate, 3-[2-(6-chloropyrazin)yl]-1-azabicyclo[2.2.2]octane] | 100 | 79.4 | 30 | – | – |
| Clc1cncc([C@H]2CN3CCC2CC3)n1 [(1), (R)-3-[2-(6-chloropyrazin)yl]-1-azabicyclo[2.2.2]octane] | 50 | 63.1 | 40 | four times | twice the potency |
| Clc1cncc([C@@H]2CN3CCC2CC3)n1 [(S) isomer] | 200 | 126 | 600 | – | – |
